One assay deals with TNFα. Kind of assay: cells. The format is cell-based, human. Particulars: Homo sapiens, Monocyte, LPS-stimulated human monocytes, TNFα content; read-out: EC50 TNF.
In a further assay the target is IRAK4 enzyme (Homo sapiens (Human), UniProt Q9NWZ3). The assay can be described thus: biochemical. The following applies: IRAK4 enzyme, TR-FRET (HTRF), 500 μM ATP. The format is biochemical. Background: TR-FRET usually uses a lanthanide donor and a delayed reading to cut background.
Chain of IRAK4 enzyme (Q9NWZ3 whole entry): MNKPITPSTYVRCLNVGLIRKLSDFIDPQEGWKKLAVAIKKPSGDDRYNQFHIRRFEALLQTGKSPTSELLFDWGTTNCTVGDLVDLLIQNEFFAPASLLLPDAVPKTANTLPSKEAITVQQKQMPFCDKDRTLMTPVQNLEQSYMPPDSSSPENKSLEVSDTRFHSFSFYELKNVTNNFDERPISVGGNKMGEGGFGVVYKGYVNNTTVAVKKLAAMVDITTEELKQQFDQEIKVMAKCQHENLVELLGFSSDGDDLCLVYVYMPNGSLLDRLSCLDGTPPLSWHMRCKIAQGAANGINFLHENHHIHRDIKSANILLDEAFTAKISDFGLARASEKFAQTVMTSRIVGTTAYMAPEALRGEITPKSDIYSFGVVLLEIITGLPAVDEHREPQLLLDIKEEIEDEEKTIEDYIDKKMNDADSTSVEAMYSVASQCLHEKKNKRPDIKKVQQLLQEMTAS

Each structure is given as a SMILES string.

The source of these data is patent US10336762B2 (priority 2017, dated 2019).

In general, EC50 refers to the midpoint of the concentration-response curve. What is called IC50 is the concentration that gives 50% inhibition. Higher therefore signals lower potency.

As for `CC(C)(O)[C@H](F)CNC(=O)c1cnc(-c2ccc3cc(C#N)cnn23)cc1NC1CCCC(F)C1` (stereo partly drawn) [Example 509, 6-(3-cyanopyrrolo[1,2-b]pyridazin-7-yl)-N-((R)-2-fluoro-3-hydroxy-3-methylbutyl)-4-(((1S)-3-fluorocyclohexyl)amino) nicotinamide], the EC50 with TNFα was found to be 66 nM. The IC50 against IRAK4 enzyme is less than 1 nM.

On to `CC1(O)CC2(CC(Nc3cc(-c4ccc5cc(C#N)cnn45)ncc3C(=O)NC[C@@H](F)C(C)(C)O)C2)C1` (stereo partly drawn) [Example 510, (R)-6-(3-cyanopyrrolo[1,2-b]pyridazin-7-yl)-N-(2-fluoro-3-hydroxy-3-methylbutyl)-4-((6-hydroxy-6-methylspiro[3.3]heptan-2-yl)amino)nicotinamide], for which, in the assay on TNFα, the half-maximal effective concentration (EC50) is 39 nM. In addition, the IC50 against IRAK4 enzyme was less than 1 nM.

Regarding `CC(C)(O)[C@H](F)CNC(=O)c1cnc(-c2ccc3cc(C#N)cnn23)cc1NC1CC2(CC(O)C2)C1` (stereo partly drawn) [Example 511, (R)-6-(3-cyano-pyrrolo[1,2-b]pyridazin-7-yl)-N-(2-fluoro-3-hydroxy-3-methylbutyl)-4-((6-hydroxyspiro[3.3]heptan-2-yl)amino) nicotinamide], the EC50 with TNFα was determined as 26 nM. The compound further gave an IC50 against IRAK4 enzyme of less than 1 nM.

Take `CNC(=O)c1cnc(-c2ccc3cc(C#N)cnn23)cc1N[C@H]1CCC[C@@H](O)C1` [Example 512, 6-(3-cyanopyrrolo[1,2-b]pyridazin-7-yl)-4-(((1S,3R)-3-hydroxy-cyclohexyl)amino)-N-methylnicotinamide]: in the assay with TNFα, the EC50 was determined as 98 nM. Besides, on IRAK4 enzyme, the midpoint of inhibition, the IC50, lay at 3 nM.

Regarding `N#Cc1cnn2c(-c3cc(N[C@H]4CCC[C@@H](O)C4)c(C(=O)NC4(C#N)CC4)cn3)ccc2c1` [Example 513, N-(1-cyanocyclopropyl)-6-(3-cyanopyrrolo[1,2-b]pyridazin-7-yl)-4-(((1S,3R)-3-hydroxy-cyclohexyl)amino) nicotinamide], in the assay with TNFα, the EC50 is 110 nM. This compound registered a concentration for half-maximal inhibition (IC50) at IRAK4 enzyme of 2 nM.

Turning to `N#Cc1cnn2c(-c3cc(N[C@H]4CCC[C@@H](O)C4)c(C(=O)NC4CC4)cn3)ccc2c1` [Example 514, 6-(3-cyanopyrrolo[1,2-b]pyridazin-7-yl)-N-cyclopropyl-4-(((1S,3R)-3-hydroxy-cyclohexyl)amino) nicotinamide], the EC50 in the assay with TNFα amounted to 213 nM. Moreover, at IRAK4 enzyme, the IC50 stood at 9 nM.

For `COC(C)(C)[C@H](F)CNC(=O)c1cnc(-c2ccc3cc(C#N)cnn23)cc1N[C@H]1CCC[C@@H](O)C1` [Example 518, 6-(3-cyanopyrrolo[1,2-b]pyridazin-7-yl)-N-((R)-2-fluoro-3-methoxy-3-methylbutyl)-4-(((1S,3R)-3-hydroxycyclohexyl)amino) nicotinamide], the EC50 in the assay with TNFα came to 13 nM. At IRAK4 enzyme, the IC50 is less than 1 nM.

As to `N#Cc1cnn2c(-c3cc(Nc4cnn(CC(F)F)c4)c(C(=O)N[C@H]4CC[C@H](NC(=O)C5CC5)CC4)cn3)ccc2c1` [Example 519, 6-(3-cyanopyrrolo[1,2-b]pyridazin-7-yl)-N-((1r,4r)-4-(cyclopropane-carboxamido)cyclohexyl)-4-((1-(2,2-difluoroethyl)-1H-pyrazol-4-yl)amino) nicotinamide], the half-maximal effective concentration (EC50) in the assay with TNFα was 34 nM. Besides, the IC50 against IRAK4 enzyme is less than 1 nM.

With `CC(C)(O)[C@H](F)CNC(=O)c1cnc(-c2ccc3cc(C#N)cnn23)cc1N[C@H]1CC[C@@H](O)C1` [Example 520, 6-(3-cyanopyrrolo[1,2-b]pyridazin-7-yl)-N-((R)-2-fluoro-3-hydroxy-3-methylbutyl)-4-(((1S,3R)-3-hydroxycyclopentyl)amino)nicotinamide], in the assay on TNFα, the EC50 is 45 nM. This compound also gave an IC50 at IRAK4 enzyme of less than 1 nM.

Turning to `CC(C)Nc1cc(-c2ccc3cc(C#N)cnn23)ncc1C(=O)NC1CCC(S(C)(=O)=O)CC1` (stereo not drawn) [Example 521, 6-(3-cyanopyrrolo[1,2-b]pyridazin-7-yl)-4-(iso-propylamino)-N-(4-(methylsulfonyl)cyclohexyl) nicotinamide], the EC50 with TNFα came out at 717 nM. Further, 62 nM corresponded to half-maximal inhibition at IRAK4 enzyme (IC50).

As for `CC(C)(O)[C@H](F)CNC(=O)c1cnc(-c2ccc3cc(C#N)cnn23)cc1N[C@H]1CC[C@H](O)C1` [Example 522, 6-(3-cyanopyrrolo[1,2-b]pyridazin-7-yl)-N-((R)-2-fluoro-3-hydroxy-3-methylbutyl)-4-(((1S,3S)-3-hydroxycyclopentyl)amino) nicotinamide], the EC50 in the assay on TNFα was found to be 23 nM. On IRAK4 enzyme, this compound registered an IC50 of less than 1 nM.

In the case of `CC(C)(O)[C@H](F)CNC(=O)c1cnc(-c2ccc3cc(C#N)cnn23)cc1NC1CCC(S(C)(=O)=O)CC1` (stereo partly drawn) [Example 523, (R)-6-(3-cyanopyrrolo[1,2-b]pyridazin-7-yl)-N-(2-fluoro-3-hydroxy-3-methylbutyl)-4-((4-(methylsulfonyl)cyclohexyl)amino)nicotinamide], in the assay with TNFα, the concentration for a half-maximal effect (EC50) is 412 nM. On IRAK4 enzyme, this compound showed an IC50 of 14 nM.

As to `CC(C)(O)[C@H](F)CNC(=O)c1cnc(-c2ccc3cc(C#N)cnn23)cc1N[C@H]1CCC[C@@H](N2CCOCC2)C1` [Example 524, 6-(3-cyanopyrrolo[1,2-b]pyridazin-7-yl)-N-((R)-2-fluoro-3-hydroxy-3-methylbutyl)-4-(((1S,3R)-3-morpholinocyclohexyl)amino)nicotinamide], the EC50 with TNFα is 97 nM. This compound displayed a half-inhibitory concentration (IC50) on IRAK4 enzyme of 1 nM.

For `N#Cc1cnn2c(-c3cc(NC4COC4)c(C(=O)N[C@H]4CC[C@H](NC(=O)C5CC5)CC4)cn3)ccc2c1` [Example 526, 6-(3-cyanopyrrolo[1,2-b]pyridazin-7-yl)-N-((1r,4r)-4-(cyclopropane-carboxamido)cyclohexyl)-4-(oxetan-3-ylamino) nicotinamide], the EC50 with TNFα came out at 99 nM. The compound further showed an IC50 on IRAK4 enzyme of 1 nM.

Regarding `N#Cc1cnn2c(-c3cc(N[C@H]4CCC[C@@H](O)C4)c(C(=O)N[C@H]4CC[C@H](NC(=O)C5CC5)CC4)cn3)ccc2c1` [Example 527, 6-(3-cyanopyrrolo[1,2-b]pyridazin-7-yl)-N-((1r,4S)-4-(cyclopropane-carboxamido)cyclohexyl)-4-(((1S,3R)-3-hydroxycyclo-hexyl)amino)nicotinamide], in the assay with TNFα, the EC50 was determined as 16 nM. Moreover, the IC50 on IRAK4 enzyme was less than 1 nM.

For the compound `CC(C)(F)[C@H](F)CNC(=O)c1cnc(-c2ccc3cc(C#N)cnn23)cc1N[C@H]1CCC[C@@H](O)C1` [Example 530, 6-(3-cyanopyrrolo[1,2-b]pyridazin-7-yl)-N-((R)-2,3-difluoro-3-methylbutyl)-4-(((1S,3R)-3-hydroxy-cyclohexyl)amino)nicotinamide], in the assay with TNFα, the EC50 was 10 nM. Moreover, the IC50 on IRAK4 enzyme is less than 1 nM.

`CC(C)Nc1cc(-c2ccc3cc(C#N)cnn23)ncc1C(=O)NC[C@@H](F)C(C)(C)F` [Example 531, (R)-6-(3-cyanopyrrolo[1,2-b]pyridazin-7-yl)-N-(2,3-difluoro-3-methylbutyl)-4-(isopropylamino)nicotinamide]: the EC50 in the assay on TNFα was found to be 34 nM. Also, on IRAK4 enzyme, the IC50 is less than 1 nM.

As for `CC(=O)N[C@@H]1CCC[C@H](Nc2cc(-c3ccc4cc(C#N)cnn34)ncc2C(=O)NC[C@@H](F)C(C)(C)O)C1` [Example 532, 4-(((1S,3R)-3-acetamidocyclohexyl)amino)-6-(3-cyano-pyrrolo[1,2-b]pyridazin-7-yl)-N-((R)-2-fluoro-3-hydroxy-3-methylbutyl) nicotinamide], in the assay with TNFα, the EC50 came to 122 nM. Further, on IRAK4 enzyme, half-maximal inhibition (IC50) required 1 nM.

With `CC(C)(O)[C@H](F)CNC(=O)c1cnc(-c2ccc3cc(C#N)cnn23)cc1N[C@H]1CCC[C@@H](N)C1` [Example 533, 4-(((1S,3R)-3-aminocyclohexyl)amino)-6-(3-cyanopyrrolo[1,2-b]pyridazin-7-yl)-N-((R)-2-fluoro-3-hydroxy-3-methylbutyl)nicotinamide], in the assay on TNFα, the EC50 amounted to 70 nM. The IC50 at IRAK4 enzyme is less than 1 nM.

`CC(C)(O)[C@H](F)CNC(=O)c1cnc(-c2ccc3cc(C#N)cnn23)cc1N[C@H]1C[C@H](CNC(=O)C2CC2)C1` [Example 534, 6-(3-cyanopyrrolo[1,2-b]pyridazin-7-yl)-4-(((1r,3R)-3-(cyclopropane-carboxamidomethyl)cyclo-butyl)amino)-N-((R)-2-fluoro-3-hydroxy-3-methyl-butyl)nicotinamide]: in the assay with TNFα, the EC50 came out at 26 nM. This compound registered an IC50 on IRAK4 enzyme of less than 1 nM.

For the compound `CC(C)(O)[C@H](F)CNC(=O)c1cnc(-c2ccc3cc(C#N)cnn23)cc1N[C@H]1CC[C@](C)(N)CC1` [Example 535, (R)-4-((4-amino-4-methylcyclohexyl)amino)-6-(3-cyanopyrrolo[1,2-b]pyridazin-7-yl)-N-(2-fluoro-3-hydroxy-3-methylbutyl)nicotinamide], the 50% effective concentration (EC50) in the assay on TNFα worked out at 999 nM. In addition, it took 2 nM to reach half-maximal inhibition against IRAK4 enzyme (IC50).

With `CC(C)(O)[C@H](F)CNC(=O)c1cnc(-c2ccc3cc(C#N)cnn23)cc1N[C@H]1C[C@H](CO)C1` [Example 536, 6-(3-cyanopyrrolo[1,2-b]pyridazin-7-yl)-N-((R)-2-fluoro-3-hydroxy-3-methylbutyl)-4-(((1r,3R)-3-(hydroxymethyl)cyclo-butyl)amino)nicotinamide], the EC50 in the assay with TNFα was 16 nM. In addition, the IC50 against IRAK4 enzyme was less than 1 nM.

Take `CC(C)(O)[C@H](F)CNC(=O)c1cnc(-c2ccc3cc(C#N)cnn23)cc1NC12CCC(C(F)F)(CC1)CC2` [Example 537, (R)-6-(3-cyanopyrrolo[1,2-b]pyridazin-7-yl)-4-((4-(difluoromethyl)bicyclo[2.2.2]octan-1-yl)amino)-N-(2-fluoro-3-hydroxy-3-methylbutyl)nicotinamide]: the EC50 in the assay on TNFα was determined as 18 nM. Besides, the IC50 against IRAK4 enzyme came to 1 nM.

As for `CCC(=O)NC[C@H]1C[C@H](Nc2cc(-c3ccc4cc(C#N)cnn34)ncc2C(=O)NC[C@@H](F)C(C)(C)O)C1` [Example 538, 6-(3-cyanopyrrolo[1,2-b]pyridazin-7-yl)-N-((R)-2-fluoro-3-hydroxy-3-methylbutyl)-4-(((1r,3R)-3-(propionamidomethyl)cyclobutyl)amino)nicotin-amide], the EC50 in the assay with TNFα was 50 nM. The compound further yielded an IC50 at IRAK4 enzyme of less than 1 nM.
